Patent publication US5198430A, “Inclusion complexes with silybinin, their preparation and pharmaceutical compositions containing them” (Istituto Biochimico Italiano Giovanni Lorenzini SpA, priority 1989, dated 1993)

What was measured:
[1] = pH 7.5
Experimental: Release experiments with Silybinin, Silymarin and the complex of this Example were carried out according to USP XXII, paddle apparatus at pH 7.5 and 37° C.

[2] = in vivo; parameters: species or system Wistar rats; details: po, 8 mg/kg
Experimental: The absorption of the complexes of the invention has been evaluated by orally administering an aqueous solution of the composition under examination and measuring by HPLC the Silybinin bile levels. This test has been preferred because it is well known that drugs of the Silymarin kind reach in the bile the highest concentration.
The experiments have been carried out on Wistar rats weighing 180-200 g to which the compositions under examination were administered by gastric intubation. The animals were kept on an empty stomach for 16 hours. The composition to be tested was dissolved in water containing 10% of gum Arabic and were prepared solutions so that each animal was administered,each time with an amount of 5 ml/kg of said solution.
Immediately after the treatment the animals were anaesthetized and operated to check the coledocous duct. A small tube was inserted therein and the bile was collected over a period of 24 hours.
For the analytical determination 1 ml bile was treated as described in the following publication: D. Lorenz et al, Pharmacokinetic Studies with Silymarin in Human Serum and Bile--Meth. and Find.Exptl.Clin.Pharmacol.6(10) 655-661 (1984).
in test A, there were administered 20 mg/kg of Silymarin, according to a known commercial formulation which corresponds to 8 mg/kg of pure Silybinin,
in test B, there were administered 8.79 mg/kg of Silybinin having a HPLC titre of 91%, which corresponds to 8 mg/kg of pure Silybinin, used such as without excipients, […]

[3] = Thermoanalytical studies (TG, DTG, DSC, TEA); assay type: physicochemical
Experimental: Thermoanalytical investigations were carried out on a Du Pont 990 Thermal Analyser System. TG (Thermogravimetry) DTG (Differential TG) DSC (Differential Scanning Calorimetry) and TEA (Thermal Evolution Analysis) curves of the drug, as well as those of its mechanical mixtures with DIMEB and HP-βCD and the complexes were taken simultaneously.

[4] = Resorption: excretion of Silybinin in rat bile after intragastric administration, quantitative TLC; parameters: species or system male Wistar SPF rats; details: in vivo, po, 5 mg/kg
Experimental: In a further experiment the resorption of Silymarin, Silybinin and of the complex of Example 6 was evaluated. For this purpose the excretion of Silybinin in the rat bile was determined in a conventional model experiment. Anesthetized male Wistar SPF rats kept under conventional conditions, were cannulated at the ductus choledochus. After intragastric administration of the test compound (5 mg Silybinin/kg) the bile fluid was collected for 5hr. The Silybinin content in the bile fluid was determined by quantitative thin layer chromatography.

Compound | release (solubility) [1] | 0-24 hr Silybinin in bile per rat [2] | concentration at 24 h ([2]; rat) | dose excreted at 24 h ([2]; rat) | temperature at which decomposition of the drug begins ([3]; DSC, FIG. 4, non-complexed Silybinin) | loss of weight up to 160° C. ([3]; first decomposition step) | start of second decomposition step ([3]; region of the cyclodextrin decomposition) | dose excreted at 5 h [4] | % excreted Silybinin ([2]; rat, 1440 min) | Bile 0-24 hr Silybinin level ([2]; rat, 1440 min)
COc1cc(C2Oc3cc(C4Oc5cc(O)cc(O)c5C(=O)C4O)ccc3OC2CO)ccc1O (centres unmarked) [Silybinin] | 0% | 11.9 mcg/rat | 1000 ng/mL | 0.6% | about 130 °C | 4-5% | above 250 °C | 0.21% | – | –
Silybinin: β-cyclodextrin Inclusion Complex (Molar Ratio 1:1) [Example 1] | – | 256.6 mcg/rat | – | – | – | – | – | – | 11.7% | 17.6 µg/mL
